Measured values published in patent US11542492B2 (Celgene CAR LLC, priority 2009, dated 2023).

Assays:
Format in all cases: biochemical
p120γ (PI3Kγ) = target: T1, p120γ (PI3Kγ) (Homo sapiens, UniProt P48736); test: HTRF assay, p120γ; conditions: PI3Kγ; read-out: PI3Kγ HTRF IC50 Inhibition Designation
T1 construct: purchased BPS Bioscience 40625
Excerpt: The protocol below describes an end-point, competition-binding HTRF assay used to measure inherent potency of test compounds against active p110α/p85α, p110β/p85α, p120γ enzymes. The mechanics of the assay platform are best described by the vendor (Millipore, Billerica, Mass.) on their website at the following URL: http://www.millipore.com/coa/tech1/74jt4z.
Briefly, Stop solution (Stop A, #33-007 and Stop B, #33-009; 3:1 ratio) and Detection Mix (DMC, #33-015 with DMA, #33-011 and DMB, #33-013; 18:1:1 ratio) were prepared as recommended by the manufacturer ˜2 hrs prior to use. Additionally, 1× reaction buffer (4× buffer stock #33-003), a 1.4× stock of enzyme from BPS Bioscience (San Diego, Ca) or Millipore (Billerica, Mass.) with di-C8-PIP2 lipid substrate (#33-005), and a 4×ATP solution (#A7699) Sigma/Aldrich (St. Louis, Mo.) were prepared in 1×reaction buffer. 15 μL of enzyme and lipid substrate mix were pre-incubated in a Corning (#3573) 384-well, black, non-treated microtiter plate (Corning, N.Y.) for 30 min at 25° C. with a 0.5 μL volume of 50% DMSO and serially diluted compounds prepared in 50%-75% DMSO. Lipid kinase reactions were started with the addition of 5 μL of ATP solution, mixed for 15 sec on a rotary plate shaker and incubated for 15-30 minutes at 25° C. Next, reactions were stopped with a 5 μL addition of Stop solution followed by a 5 μL volume of Detection Mix. Stopped reactions were equilibrated for 1 and 18 hrs at room temperature and then read in a Synergy4 plate reader from BioTek (Winooski, Vt.) at λex330-80/λem620-35 and λem665-7.5. At the conclusion of each assay, the HTRF ratio from fluorescence emission values for each well was calculated and % Inhibition determined from averaged controls wells. % Inhibition values for each compound re then plotted against inhibitor concentration to estimate IC50 from log [Inhibitor] vs Response, Variable Slope model in GraphPad Prism from GraphPad Software (San Diego, Calif.).
Reagents Used in Optimized Protocol: • [p120γ]=1-4 nM, [ATP]=50 μM, [di-C8-PIP2]=10 μM • (40625; BPS Bioscience)

p110α/p85α (PI3Kα) = target: T2, p110α/p85α (PI3Kα) (Homo sapiens, UniProt P42336); test: HTRF assay, p110α/p85α; conditions: read-out: PI3Kα-HTRF-IC50 nM Inhibition Designation
T2 construct: purchased BPS Bioscience or Millipore 40620 (BPS Bioscience) or 14-602 (Millipore)
Experimental: HTRF Assay Protocol for Potency Assessment Against the Active Form of p110α/p85α:
(§1) The mechanics of the assay platform are best described by the vendor (Millipore, Billerica, Mass.) on their website at the following URL: http://www.millipore.com/coa/tech1/74jt4z.
(§2) Briefly, Stop solution (Stop A, #33-007 and Stop B, #33-009; 3:1 ratio) and Detection Mix (DMC, #33-015 with DMA, #33-011 and DMB, #33-013; 18:1:1 ratio) were prepared as recommended by the manufacturer ˜2 hrs prior to use. […] Lipid kinase reactions were started with the addition of 5 μL of ATP solution, mixed for 15 sec on a rotary plate shaker and incubated for 15-30 minutes at 25° C. Next, reactions were stopped with a 5 μL addition of Stop solution followed by a 5 μL volume of Detection Mix. […] At the conclusion of each assay, the HTRF ratio from fluorescence emission values for each well was calculated and % Inhibition determined from averaged controls wells. % Inhibition values for each compound re then plotted against inhibitor concentration to estimate IC50 from log [Inhibitor] vs Response, Variable Slope model in GraphPad Prism from GraphPad Software (San Diego, Calif.).

p110β/p85α (PI3Kβ) = target: T3, p110β/p85α (PI3Kβ) (Homo sapiens, UniProt P42338); test: HTRF assay, p110β/p85α; conditions: read-out: PI3Kβ HTRF IC50 Inhibition Designation
T3 construct: purchased Millipore 14-603
Experimental: as §1, §2

[1] = target: T4, HCV NS3/4A 1b protease enzyme (wild type) (Hepatitis C virus genotype 1b, UniProt P26663); test: HCV protease FRET assay (IC50_APP), wild type NS3/4A 1b
T4 construct: 10× stocks of NS3/4A protease enzyme from Bioenza (Mountain View, Calif.); purchased Bioenza
Experimental: HCV Protease FRET Assay for WT and Mutated NS3/4A 1b Enzymes (IC50_APP).
The following protocol was used to generate “apparent” IC50 (IC50_APP) values as depicted in Table 6, below. Without wishing to be bound by any particular theory, it is believed that IC50_APP, contrasted with IC50 values, may provide a more useful indication of time-dependent inhibition, and are thus more representative of binding affinity. […] 5 μL of each enzyme were added to Corning (#3575) 384-well, black, microtiter plates (Corning, N.Y.) after spotting a 0.5 μL volume of 50% DMSO and serially diluted compounds prepared in 50% DMSO. Protease reactions were immediately started after enzyme addition with the addition of 45 μL of the FRET substrate and monitored for 60-90 minutes at λex485/λem520 in a Synergy plate reader from BioTek (Winooski, Vt.). At the conclusion of each assay, progress curves from each well were examined for linear reaction kinetics and fit statistics (R^2, 95% confidence intervals, absolute sum of squares). Initial velocity (0 minutes to 15+ minutes) from each reaction was determined from the slope of a plot of relative fluorescence units vs time (minutes) and then plotted against inhibitor concentration as a percent of the no inhibitor and no enzyme controls to estimate apparent IC50 from log [Inhibitor] vs Response. (Variable Slope model in GraphPad Prism from GraphPad Software (San Diego, Calif.).)

T1 sequence (P48736 whole entry): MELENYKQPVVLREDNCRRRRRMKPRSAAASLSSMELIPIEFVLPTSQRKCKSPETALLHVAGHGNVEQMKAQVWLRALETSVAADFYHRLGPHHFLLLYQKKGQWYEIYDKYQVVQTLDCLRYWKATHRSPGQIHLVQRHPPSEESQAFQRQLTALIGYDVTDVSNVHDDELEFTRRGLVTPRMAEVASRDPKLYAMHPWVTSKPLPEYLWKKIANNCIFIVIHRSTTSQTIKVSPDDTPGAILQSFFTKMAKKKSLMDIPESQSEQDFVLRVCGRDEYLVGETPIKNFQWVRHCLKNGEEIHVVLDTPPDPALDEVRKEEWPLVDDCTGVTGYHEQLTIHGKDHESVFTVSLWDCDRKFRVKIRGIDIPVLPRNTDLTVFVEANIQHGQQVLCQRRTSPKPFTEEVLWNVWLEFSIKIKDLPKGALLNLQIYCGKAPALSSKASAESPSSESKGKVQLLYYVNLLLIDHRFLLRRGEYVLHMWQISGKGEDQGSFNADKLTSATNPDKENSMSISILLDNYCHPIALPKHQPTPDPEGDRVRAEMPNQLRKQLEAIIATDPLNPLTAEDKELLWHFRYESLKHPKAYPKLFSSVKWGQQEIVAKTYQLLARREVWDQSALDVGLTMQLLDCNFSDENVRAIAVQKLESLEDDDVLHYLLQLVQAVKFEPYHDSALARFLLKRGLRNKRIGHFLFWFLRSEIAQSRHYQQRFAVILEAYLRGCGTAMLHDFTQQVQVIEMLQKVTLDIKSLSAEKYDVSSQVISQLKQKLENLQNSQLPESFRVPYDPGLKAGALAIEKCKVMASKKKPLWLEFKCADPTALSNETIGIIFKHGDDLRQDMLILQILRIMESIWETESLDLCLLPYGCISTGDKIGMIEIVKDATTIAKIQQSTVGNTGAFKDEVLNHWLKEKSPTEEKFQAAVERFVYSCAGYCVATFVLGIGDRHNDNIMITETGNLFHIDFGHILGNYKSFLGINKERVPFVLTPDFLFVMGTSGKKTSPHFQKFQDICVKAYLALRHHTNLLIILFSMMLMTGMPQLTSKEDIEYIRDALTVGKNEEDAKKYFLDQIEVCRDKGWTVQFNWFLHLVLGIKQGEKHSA
T3 sequence (P42338 whole entry): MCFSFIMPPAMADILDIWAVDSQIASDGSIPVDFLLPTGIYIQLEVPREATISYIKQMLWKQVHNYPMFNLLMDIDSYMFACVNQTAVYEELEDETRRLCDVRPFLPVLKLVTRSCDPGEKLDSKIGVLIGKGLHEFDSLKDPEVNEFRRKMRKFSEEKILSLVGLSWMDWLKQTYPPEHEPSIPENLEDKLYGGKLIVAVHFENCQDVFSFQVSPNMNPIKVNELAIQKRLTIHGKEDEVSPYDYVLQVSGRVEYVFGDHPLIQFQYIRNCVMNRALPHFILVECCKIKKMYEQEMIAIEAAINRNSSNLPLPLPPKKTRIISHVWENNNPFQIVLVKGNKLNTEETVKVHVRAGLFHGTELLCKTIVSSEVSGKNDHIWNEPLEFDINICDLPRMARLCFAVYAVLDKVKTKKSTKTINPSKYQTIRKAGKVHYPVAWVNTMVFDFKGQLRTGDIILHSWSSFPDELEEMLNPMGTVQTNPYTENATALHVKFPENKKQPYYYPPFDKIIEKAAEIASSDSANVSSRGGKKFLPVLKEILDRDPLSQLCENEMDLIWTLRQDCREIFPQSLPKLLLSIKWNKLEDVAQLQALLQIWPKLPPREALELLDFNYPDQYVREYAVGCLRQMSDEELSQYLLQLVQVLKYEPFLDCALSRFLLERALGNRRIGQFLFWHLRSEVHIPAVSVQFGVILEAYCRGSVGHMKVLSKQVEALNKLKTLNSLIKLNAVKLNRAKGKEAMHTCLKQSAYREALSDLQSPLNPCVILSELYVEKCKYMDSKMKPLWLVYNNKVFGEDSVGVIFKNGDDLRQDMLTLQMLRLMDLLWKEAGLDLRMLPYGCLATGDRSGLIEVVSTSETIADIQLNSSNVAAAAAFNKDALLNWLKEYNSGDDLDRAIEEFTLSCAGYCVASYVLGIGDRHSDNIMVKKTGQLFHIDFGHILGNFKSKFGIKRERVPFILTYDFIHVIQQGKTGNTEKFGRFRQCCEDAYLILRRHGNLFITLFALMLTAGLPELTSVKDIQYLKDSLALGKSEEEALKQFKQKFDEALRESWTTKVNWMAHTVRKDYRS
T3 sequence (P27986 whole entry partner): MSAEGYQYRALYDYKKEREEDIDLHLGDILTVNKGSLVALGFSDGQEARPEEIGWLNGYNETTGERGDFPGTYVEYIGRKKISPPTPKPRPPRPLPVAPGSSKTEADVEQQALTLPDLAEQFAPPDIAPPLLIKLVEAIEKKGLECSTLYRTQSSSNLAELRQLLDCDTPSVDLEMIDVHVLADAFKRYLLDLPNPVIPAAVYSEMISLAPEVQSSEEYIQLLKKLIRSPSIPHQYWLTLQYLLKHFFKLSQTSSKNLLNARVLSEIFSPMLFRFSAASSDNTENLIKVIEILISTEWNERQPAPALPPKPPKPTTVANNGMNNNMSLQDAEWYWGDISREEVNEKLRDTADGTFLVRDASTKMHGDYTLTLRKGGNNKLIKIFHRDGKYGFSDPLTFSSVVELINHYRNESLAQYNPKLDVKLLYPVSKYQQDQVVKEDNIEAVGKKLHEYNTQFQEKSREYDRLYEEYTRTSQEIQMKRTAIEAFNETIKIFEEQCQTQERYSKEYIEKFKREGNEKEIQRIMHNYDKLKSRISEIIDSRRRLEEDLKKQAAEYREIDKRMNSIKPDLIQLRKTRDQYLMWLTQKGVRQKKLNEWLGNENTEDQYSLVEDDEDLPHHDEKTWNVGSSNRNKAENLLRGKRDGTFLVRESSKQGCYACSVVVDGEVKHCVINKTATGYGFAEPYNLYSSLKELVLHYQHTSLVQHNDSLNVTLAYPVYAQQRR
T2 sequence (P42336 whole entry): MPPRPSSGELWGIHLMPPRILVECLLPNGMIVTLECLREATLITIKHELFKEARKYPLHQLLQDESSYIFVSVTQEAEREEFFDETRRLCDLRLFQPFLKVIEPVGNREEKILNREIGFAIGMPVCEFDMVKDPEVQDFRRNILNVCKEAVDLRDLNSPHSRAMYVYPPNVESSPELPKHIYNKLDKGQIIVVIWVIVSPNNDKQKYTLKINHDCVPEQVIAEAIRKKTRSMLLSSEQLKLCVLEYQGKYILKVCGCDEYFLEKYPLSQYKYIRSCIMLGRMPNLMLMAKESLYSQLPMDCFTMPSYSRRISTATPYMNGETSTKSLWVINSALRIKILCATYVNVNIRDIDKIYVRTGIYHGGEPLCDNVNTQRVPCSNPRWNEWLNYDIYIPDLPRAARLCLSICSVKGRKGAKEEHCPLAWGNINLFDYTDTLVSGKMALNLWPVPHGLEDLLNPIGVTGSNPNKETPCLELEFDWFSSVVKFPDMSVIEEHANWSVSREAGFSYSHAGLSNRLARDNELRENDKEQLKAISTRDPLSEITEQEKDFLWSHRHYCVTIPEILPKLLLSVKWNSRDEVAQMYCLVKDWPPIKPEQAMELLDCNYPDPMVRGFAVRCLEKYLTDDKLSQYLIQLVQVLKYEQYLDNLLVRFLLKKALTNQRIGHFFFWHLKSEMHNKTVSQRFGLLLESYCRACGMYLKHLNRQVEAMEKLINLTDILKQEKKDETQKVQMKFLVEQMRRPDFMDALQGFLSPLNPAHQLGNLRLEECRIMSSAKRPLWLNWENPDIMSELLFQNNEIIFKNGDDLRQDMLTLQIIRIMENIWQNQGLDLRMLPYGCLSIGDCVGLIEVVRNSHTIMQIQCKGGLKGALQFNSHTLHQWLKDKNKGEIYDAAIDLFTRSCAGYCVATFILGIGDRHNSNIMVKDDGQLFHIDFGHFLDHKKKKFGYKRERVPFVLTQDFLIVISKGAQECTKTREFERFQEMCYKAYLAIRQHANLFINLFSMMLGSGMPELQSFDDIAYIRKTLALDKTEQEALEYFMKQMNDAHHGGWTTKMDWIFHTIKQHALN
T2 sequence (P27986 whole entry partner): as the sequence (P27986 whole entry partner) above
T4 sequence (P26663 1658-1711): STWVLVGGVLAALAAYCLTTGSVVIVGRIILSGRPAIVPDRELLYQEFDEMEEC
T4 sequence (P26663 1027-1657): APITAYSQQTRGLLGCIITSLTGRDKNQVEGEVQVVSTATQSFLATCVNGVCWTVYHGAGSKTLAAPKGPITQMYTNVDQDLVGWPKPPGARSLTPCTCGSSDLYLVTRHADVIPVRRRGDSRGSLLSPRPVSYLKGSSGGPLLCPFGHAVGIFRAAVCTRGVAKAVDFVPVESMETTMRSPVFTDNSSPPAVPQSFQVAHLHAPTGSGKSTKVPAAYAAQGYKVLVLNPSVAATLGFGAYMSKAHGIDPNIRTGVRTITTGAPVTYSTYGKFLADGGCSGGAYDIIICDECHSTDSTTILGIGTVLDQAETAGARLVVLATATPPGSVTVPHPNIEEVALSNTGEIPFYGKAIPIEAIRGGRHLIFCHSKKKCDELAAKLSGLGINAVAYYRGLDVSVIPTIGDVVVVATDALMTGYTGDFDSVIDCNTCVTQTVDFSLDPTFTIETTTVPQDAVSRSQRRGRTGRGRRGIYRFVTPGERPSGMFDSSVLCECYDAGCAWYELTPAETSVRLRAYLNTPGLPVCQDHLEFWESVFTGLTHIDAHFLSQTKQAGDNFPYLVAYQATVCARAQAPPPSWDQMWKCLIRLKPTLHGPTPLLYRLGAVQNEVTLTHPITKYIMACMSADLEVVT

Compound	IC50 (p120γ (PI3Kγ)) [nM]	IC50 (p110α/p85α (PI3Kα)) [nM]	IC50 (p110β/p85α (PI3Kβ)) [nM]	IC50 [1] [nM]
C=CC(=O)n1cc(-c2ccc3c(c2)N(c2nc4c(s2)C(=O)NC(C)(C)C4)CCO3)cn1 [XXIII-5, 2-(6-(1-acryloyl-1H-pyrazol-4-yl)-2H-benzo[b][1,4]oxazin-4(3H)-yl)-6,6-dimethyl-6,7-dihydrothiazolo[5,4-c]pyridin-4(5H)-one]		100 to 1000		
COc1ccc(NC(=O)[C@@H]2CCC(=O)O2)cc1-n1c(CSc2ncnc3[nH]cnc23)nc2cccc(Cl)c2c1=O [XXXVII-3, (S)-N-(3-(2-((9H-purin-6-ylthio)methyl)-5-chloro-4-oxoquinazolin-3(4H)-yl)-4-methoxyphenyl)-5-oxotetrahydrofuran-2-carboxamide]			100 to 1000	
COc1ncc(-c2ccc3nccc(-c4ccc(C(=O)N5C[C@@H]6C[C@H]5C(=O)O6)cc4)c3c2)cc1NS(=O)(=O)c1ccc(F)cc1F [XXV-13, 2,4-difluoro-N-(2-methoxy-5-(4-(4-((1S,4S)-3-oxo-2-oxa-5-azabicyclo[2.2.1]heptane-5-carbonyl)phenyl)quinolin-6-yl)pyridin-3-yl)benzenesulfonamide]			< 10	
C=CC(=O)Nc1ccc(-c2ccnc3ccc(-c4cnc(OC)c(NS(=O)(=O)c5ccc(F)cc5F)c4)cc23)cc1 [XXV-14, N-(4-(6-(5-(2,4-difluorophenylsulfonamido)-6-methoxypyridin-3-yl)quinolin-4-yl)phenyl) acrylamide]			< 10	
CC1(C)Cc2nc(N3CCOc4ccc(-c5ccc6occc(=O)c6c5)cc43)sc2C(=O)N1 [XXIII-6]	100 to 1000	100 to 1000		
COc1c(OCCCC(=O)N2C[C@H]3C[C@@H]2C(=O)O3)ccc2c1N=C(NC(=O)c1cccnc1)N1CCN=C21 [XXVII-13, N-(7-methoxy-8-(4-oxo-4-((1R,4R)-3-oxo-2-oxa-5-azabicyclo[2.2.1]heptan-5-yl)butoxy)-2,3-dihydroimidazo[1,2-c]quinazolin-5-yl)nicotinamide]			100 to 1000	
O=C1CC[C@H](C(=O)N2CCN(c3ccnc4ccc(/C=C5\SC(Nc6c(Cl)cccc6Cl)=NC5=O)cc34)CC2)O1 [XXIV-1]	100 to 1000	10 to 100		
CC1(C)Cc2nc(N3CCOc4ccc(NC(=O)[C@@H]5CCC(=O)O5)cc43)sc2C(=O)N1 [XXIII-1]	100 to 1000	100 to 1000		
CC1(C)Cc2nc(N3CCOc4ccc(NC(=O)[C@H]5CCC(=O)O5)cc43)sc2C(=O)N1 [XXIII-2]	100 to 1000	100 to 1000		
CC1(C)Cc2nc(N3CCOc4ccc(-c5ccc(C(=O)N6C[C@H]7C[C@@H]6C(=O)O7)cc5)cc43)sc2C(=O)N1 [XXIII-7]	1000 to 10000	1000 to 10000		
O=C1CC[C@@H](C(=O)N2CCN(c3ccnc4ccc(/C=C5\SC(Nc6c(Cl)cccc6Cl)=NC5=O)cc34)CC2)O1 [XXIV-2]	100 to 1000	100 to 1000		
C=C[C@@H]1C[C@]1(NC(=O)[C@@H]1CC(OC(=O)N2Cc3cccc(F)c3C2)CN1C(=O)[C@H](CCNC(=O)[C@H]1CCC(=O)O1)NC(=O)OC(C)(C)C)C(=O)NS(=O)(=O)C1CC1 (stereo partly drawn) [XVI-10, (5S)-1-((S)-2-(tert-butoxycarbonylamino)-4-((R)-5-oxotetrahydrofuran-2-carboxamido)butanoyl)-5-((1R,2S)-1-(cyclopropylsulfonylcarbamoyl)-2-vinylcyclopropylcarbamoyl)pyrrolidin-3-yl 4-fluoroisoindoline-2-carboxylate]				100 to 1000
C=C[C@@H]1C[C@]1(NC(=O)[C@@H]1CC(OC(=O)N2Cc3cccc(F)c3C2)CN1C(=O)CNC(=O)[C@H]1CCC(=O)O1)C(=O)NS(=O)(=O)C1CC1 (stereo partly drawn) [XVI-12, (5S)-5-((1R,2S)-1-(cyclopropylsulfonylcarbamoyl)-2-vinylcyclopropylcarbamoyl)-1-(2-((R)-5-oxotetrahydrofuran-2-carboxamido)acetyl)pyrrolidin-3-yl 4-fluoroisoindoline-2-carboxylate]				100 to 1000

The next lines start with results.

IC50 (p120γ (PI3Kγ)) [nM]	IC50 (p110α/p85α (PI3Kα)) [nM]	IC50 (p110β/p85α (PI3Kβ)) [nM]	Compound	IC50 [1] [nM]
1000 to 10000	100 to 1000		O=C1O[C@H]2C[C@@H]1N(Cc1cc(O)cc(-c3nc(N4CCOCC4)c4sccc4n3)c1)C2 [XXII-20]	
100 to 1000	100 to 1000		CC1(C)Cc2nc(N3CCOc4ccc(C(=O)N5C[C@@H]6C[C@H]5C(=O)O6)cc43)sc2C(=O)N1 [XXIII-4, (1S,4S)-5-(4-(6,6-dimethyl-4-oxo-4,5,6,7-tetrahydrothiazolo[5,4-c]pyridin-2-yl)-3,4-dihydro-2H-benzo[b][1,4]oxazine-6-carbonyl)-2-oxa-5-azabicyclo[2.2.1]heptan-3-one]	
100 to 1000	100 to 1000		C=CS(=O)(=O)Oc1cccc(-c2nc(N3CCOCC3)c3sc(CN(C)S(=O)(=O)C=C)cc3n2)c1 [XXII-9]	
100 to 1000	100 to 1000		CC1(C)Cc2nc(N3CCOc4ccc(C(=O)N5C[C@H]6C[C@@H]5C(=O)O6)cc43)sc2C(=O)N1 [XXIII-3]	
100 to 1000	100 to 1000		C[C@H]1OC(=O)[C@H]1NC(=O)N1CCN(Cc2cc3nc(-c4cccc5[nH]ncc45)nc(N4CCOCC4)c3s2)CC1 [XXII-13]	
	1000 to 10000		O=C(N1CCN(Cc2cc3nc(-c4ccccc4)nc(N4CCOCC4)c3s2)CC1)n1ccnc1 [XXII-18]	
100 to 1000	100 to 1000		C=CS(=O)(=O)N1CCN(Cc2cc3nc(-c4cccc5[nH]ncc45)nc(N4CCOCC4)c3s2)CC1 [XXII-8, 4-(2-(1H-indazol-4-yl)-6-((4-(vinylsulfonyl)piperazin-1-yl)methyl)thieno[3,2-d]pyrimidin-4-yl)morpholine]	
	10 to 100		CC(=O)CC(=O)N1CCN(Cc2cc3nc(-c4cccc5[nH]ncc45)nc(N4CCOCC4)c3s2)CC1 [XXII-14]	
	10 to 100		O=C(N1CCN(Cc2cc3nc(-c4cccc5[nH]ncc45)nc(N4CCOCC4)c3s2)CC1)n1ccnc1 [XXII-16, (4-((2-(1H-indazol-4-yl)-4-morpholinothieno[3,2-d]pyrimidin-6-yl)methyl)piperazin-1-yl)(1H-imidazol-1-yl)methanone]	
	1000 to 10000		C=CC(=O)N1CCN(Cc2cc3nc(-c4ccccc4)nc(N4CCOCC4)c3s2)CC1 [XXII-19]	
100 to 1000	10 to 100		O=C1CC[C@@H](C(=O)N2CC=C(c3cc4nc(-c5cccc(O)c5)nc(N5CCOCC5)c4s3)CC2)O1 [XXII-1]	
100 to 1000	10 to 100		CC(C)Oc1c(N2CCN(Cc3cc4nc(-c5cccc6[nH]ncc56)nc(N5CCOCC5)c4s3)CC2)c(=O)c1=O [XXII-15]	
1000 to 10000	1000 to 10000		C=CC(=O)Nc1cccc(-c2nc(N3CCOCC3)c3sccc3n2)c1 [XXII-21]	
